Experiments:
Type in all cases: cell-based
[1] = test system: CHO cells; experiment: Parallel assay of incorporation of [35S]methionine into CHO cells on CYTODEX/YOx Microcarriers (Example 3); details: cycloheximide 10 μM, without inhibitor 1700 IODs, 'no cell' controls 650 IODs, FIG. 4
Protocol: (§1) 40 mg of YOx-loaded CYTODEX™ Microcarrier beads were dispensed into suitable sterile containers and allowed to settle. The supernatant was removed from each microcarrier pellet and the beads resuspended in 5 ml of either complete Ham's F12 nutrient mix (Sigma N-4888) or DMEM (Sigma D-6546), both containing 10% FCS, 2 mM L-glutamine and 50 μg/ml streptamycin/50 IU/ml penicillin. The microcarriers were incubated at 37° C. for thirty minutes without rolling.
(§2) 10×10^6 CHO or HeLa cells in 5 ml complete medium were added to separate microcarrier preparations and the cultures incubated at 37° C. for thirty minutes without rolling. After the initial incubation cultures were incubated overnight at 37° C. with rolling. Following the overnight incubation, unattached cells were removed and the beads resuspended in 10 ml complete culture medium. Microcarriers/cells were maintained in culture until the cell density had reached a sufficient level. Culture medium was replaced every two days.
(§3) Cycloheximide was prepared as a 1 mM stock in phosphate buffered saline and added to the cultures at a final concentration of 10 μM. […]
(§4) Each microcarrier preparation was allowed to settle and the growth medium removed. […] Plates were read on the LEADseeker™ Imaging System with a 5 minute exposure time to detect cellular associated methionine.

[2] = test system: HeLa cells; experiment: Parallel assay of incorporation of [35S]methionine into HeLa cells on CYTODEX/YOx Microcarriers (Example 3); details: cycloheximide 10 μM, without inhibitor 900 IODs, 'no cell' controls 650 IODs, FIG. 4
Protocol: as §1, §2, §3, §4

[3] = test system: CHO cells; experiment: Uptake of radiolabelled methionine into CHO cells cultured on CYTODEX/YOx Microcarriers (Example 2); details: cycloheximide 10 μM final concentration; CCD imaging; FIG. 1
Protocol: CYTODEX™ and CYTODEX™/YOx Microcarrier beads were dispensed into sterile universal containers. Beads were collected by centrifugation at 100 rpm for one minute. Supernatants were removed and replaced with complete Ham's F12 nutrient mix containing 10% (v\v) FCS. Beads were incubated with rolling at 37° C. for 30 minutes. Beads were harvested by centrifugation at 100 rpm for 1 minute. Spent medium was removed and replaced with 10^7 cells in 500 μl or less. Beads plus cells were incubated at 37° C. for 20 minutes to permit cell attachment to beads. Fresh Ham's F12 medium was added to a final volume of 4 ml containing 5 mg/ml beads for [^35S] and 10 mg/ml for [^14C] or [^3H]. Beads were left to roll overnight at 37° C. Following overnight incubation, beads/cells were harvested by centrifugation at 100 rpm for 1 minute. Supernatant containing unattached cells was removed. Microcarrier beads were washed with PBS (×1) and resuspended in methionine deficient DMEM supplemented with radiolabelled methionine. Cultures were returned to 37° C. with rolling. [^3H]Methionine and [^14C] or [^35S]methionine were included at final concentrations of 8 μCi/ml and 4 μCi/ml respectively. […]

Q: With C[C@@H]1C[C@@H]([C@H](O)CC2CC(=O)NC(=O)C2)C(=O)[C@@H](C)C1 [cycloheximide] as the compound, how does the “signal of [35S]methionine incorporation in the presence of protein synthesis inhibitor” value [1] read?
A: 650 IODs

Q: What about the “signal of [35S]methionine incorporation in the presence of protein synthesis inhibitor” value [2] of the same compound?
A: 600 IODs

Q: And the “uptake of [35S]methionine into CHO cells” value [3]?
A: inhibited

Source: US7101719B2, “Support and method for cell based assays” (GE Healthcare Limited, priority 2000, dated 2006)
